# Laboratory results published in ChEMBL document CHEMBL1201862, “PubChem BioAssay data set” (2004).
#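 Results reflect a 48-hour exposure of cells in 96-well plates to compound at five concentrations. The concentration for 50% growth inhibition is given as GI50.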 Active and inactive are the calls of the source. No stated cut-off is given here; in the data, active = GI50 up to about 1.1 µM and inactive = higher.
# What was measured:
# Test in all cases: inhibition of tumour cell growth, NCI panel, 48 h
# MDA-MB-231 = test system: MDA-MB-231
# UACC-257 = test system: UACC-257
# BT-549 = test system: BT-549
# HL-60 = test system: HL-60
# MOLT-4 = test system: MOLT-4
# EKVX = test system: EKVX
# SW-620 = test system: SW-620
# Malme-3M = test system: Malme-3M
# OVCAR-8 = test system: OVCAR-8
# COLO 205 = test system: COLO 205
# CCRF-CEM = test system: CCRF-CEM
# MDA-MB-435 = test system: MDA-MB-435
# HOP-62 = test system: HOP-62
# SN12C = test system: SN12C
# RXF 393 = test system: RXF 393
# HCT-15 = test system: HCT-15
# HOP-92 = test system: HOP-92
# NCI-H522 = test system: NCI-H522
# NCI-H226 = test system: NCI-H226
Structure (SMILES),GI50 (MDA-MB-231),GI50 (UACC-257),GI50 (BT-549),GI50 (HL-60),GI50 (MOLT-4),GI50 (EKVX),GI50 (SW-620),GI50 (Malme-3M),GI50 (OVCAR-8),GI50 (COLO 205),GI50 (CCRF-CEM),GI50 (MDA-MB-435),GI50 (HOP-62),GI50 (SN12C),GI50 (RXF 393),GI50 (HCT-15) [µM],GI50 (HOP-92),GI50 (NCI-H522),GI50 (NCI-H226)
CC(=O)Nc1ccc(-c2nc3cc(Cl)ccc3o2)cc1,> 50 µM (inactive),> 50 µM (inactive),> 50 µM (inactive),40.9 µM (inactive),> 50 µM (inactive),> 50 µM (inactive),> 50 µM (inactive),> 50 µM (inactive),> 50 µM (inactive),> 50 µM (inactive),> 50 µM (inactive),> 50 µM (inactive),> 50 µM (inactive),> 50 µM (inactive),> 50 µM (inactive),> 50,> 50 µM (inactive),> 50 µM (inactive),24.5 µM (inactive)
CN(CCNC(=O)c1c[nH]c2c1ccc1ccccc12)CCNC(=O)c1c[nH]c2c1ccc1ccccc12,1.59 µM (inactive),1.79 µM (inactive),9.35 µM (inactive),1.95 µM (inactive),2.01 µM (inactive),3.62 µM (inactive),1.91 µM (inactive),8.55 µM (inactive),1.93 µM (inactive),1.61 µM (inactive),1.73 µM (inactive),1.84 µM (inactive),2.36 µM (inactive),3.39 µM (inactive),1.14 µM (inactive),1.92,1.75 µM (inactive),1.89 µM (inactive),18.1 µM (inactive)
COc1cc(CNc2nc3ccccc3nc2-c2cccs2)cc(OC)c1OC,17.6 µM (inactive),34 µM (inactive),3.1 µM (inactive),14 µM (inactive),7.67 µM (inactive),29.6 µM (inactive),36.7 µM (inactive),17.9 µM (inactive),14.3 µM (inactive),27.4 µM (inactive),13.1 µM (inactive),21.7 µM (inactive),21.4 µM (inactive),12.9 µM (inactive),14 µM (inactive),21.9,1.26 µM (inactive),14 µM (inactive),29.5 µM (inactive)
CCCC(=O)OC[n+]1cccc(-c2c(COC(=O)NC(C)C)c(COC(=O)NC(C)C)c3n2CCC3)c1,> 74.8 µM (inactive),> 100 µM (inactive),> 79.6 µM (inactive),15.7 µM (inactive),13.6 µM (inactive),> 100 µM (inactive),48.2 µM (inactive),66.5 µM (inactive),55.7 µM (inactive),73.3 µM (inactive),9.98 µM (inactive),98.2 µM (inactive),49.8 µM (inactive),37.8 µM (inactive),23.1 µM (inactive),> 93.3,32.4 µM (inactive),30.4 µM (inactive),> 91 µM (inactive)
C=C(C)[C@@H]1CCC2=C(CC[C@]3(C)[C@@H]([C@@H](CCC=C(C)C)C(=O)O)[C@H](O)C[C@@]23C)[C@@]1(C)CCC(=O)O [PORICOIC ACID G],> 100 µM (inactive),> 100 µM (inactive),71.9 µM (inactive),0.0393 µM (active),> 100 µM (inactive),44.6 µM (inactive),> 100 µM (inactive),> 100 µM (inactive),> 100 µM (inactive),52.8 µM (inactive),63.2 µM (inactive),> 100 µM (inactive),53.2 µM (inactive),52.4 µM (inactive),41.4 µM (inactive),38.6,32.1 µM (inactive),44.2 µM (inactive),57.3 µM (inactive)
O=C(c1c2c(cc3c1CC1(Cc4cc5c(cc4C1)CCCC5)C3)CCCC2)C(Br)Br,17.4 µM (inactive),19.9 µM (inactive),5.48 µM (inactive),3.18 µM (inactive),1.85 µM (inactive),34.7 µM (inactive),5.48 µM (inactive),3.53 µM (inactive),15 µM (inactive),13.2 µM (inactive),1.6 µM (inactive),14 µM (inactive),> 51.2 µM (inactive),18.6 µM (inactive),6.73 µM (inactive),16.1,13.4 µM (inactive),1.65 µM (inactive),6.38 µM (inactive)
O=C1CC(NCCCNC2CC(=O)c3c(Br)sc(Br)c32)c2c(Br)sc(Br)c21 (stereo not given),2.19 µM (inactive),2.92 µM (inactive),1.73 µM (inactive),1.38 µM (inactive),0.42 µM (active),2.22 µM (inactive),2.31 µM (inactive),1.98 µM (inactive),1.66 µM (inactive),2.22 µM (inactive),0.238 µM (active),1.39 µM (inactive),2.84 µM (inactive),1.99 µM (inactive),1.69 µM (inactive),1.71,2.48 µM (inactive),1.25 µM (inactive),3.78 µM (inactive)
O=c1c2cc(I)ccc2nc(Sc2ccc([N+](=O)[O-])cc2[N+](=O)[O-])n1Cc1ccccc1,5.22 µM (inactive),4.65 µM (inactive),1.29 µM (inactive),1.83 µM (inactive),1.39 µM (inactive),3.55 µM (inactive),2.47 µM (inactive),5.51 µM (inactive),1.6 µM (inactive),5.14 µM (inactive),0.159 µM (active),1.82 µM (inactive),2.93 µM (inactive),1.46 µM (inactive),2.38 µM (inactive),1.61,2.33 µM (inactive),1.04 µM (active),2.74 µM (inactive)
Cc1ccc2c(n1)C(=O)c1cc(C)c(C)cc1C2=O,45.6 µM (inactive),30.4 µM (inactive),> 100 µM (inactive),36 µM (inactive),> 100 µM (inactive),50.8 µM (inactive),73.6 µM (inactive),43.1 µM (inactive),54.3 µM (inactive),32 µM (inactive),> 100 µM (inactive),85.3 µM (inactive),> 100 µM (inactive),56.9 µM (inactive),34 µM (inactive),75.9,43.1 µM (inactive),20.6 µM (inactive),> 100 µM (inactive)
Nc1ccc(C2SCC(=O)N2NS(=O)(=O)c2cccc(C(=O)O)c2)cc1 (stereo not given),> 100 µM (inactive),> 100 µM (inactive),> 100 µM (inactive),> 100 µM (inactive),> 100 µM (inactive),> 100 µM (inactive),> 100 µM (inactive),18.1 µM (inactive),> 100 µM (inactive),> 100 µM (inactive),63.8 µM (inactive),> 100 µM (inactive),> 100 µM (inactive),> 100 µM (inactive),> 100 µM (inactive),> 100,> 100 µM (inactive),> 100 µM (inactive),> 100 µM (inactive)
CCN(CCCl)c1cc(CN(C)C)cc(NC(=O)c2ccc(C(=O)Nc3cc(CN(C)C)cc(N(CC)CCCl)c3)cc2)c1,0.323 µM (active),0.356 µM (active),0.226 µM (active),< 0.01 µM (active),0.0183 µM (active),1.31 µM (inactive),0.149 µM (active),0.292 µM (active),0.224 µM (active),0.147 µM (active),0.0156 µM (active),0.162 µM (active),0.133 µM (active),0.0502 µM (active),0.0278 µM (active),5.69,0.184 µM (active),0.0231 µM (active),0.0697 µM (active)
COc1cc(/C=N/N=C2NCCN2)ccc1O,> 100 µM (inactive),> 100 µM (inactive),> 100 µM (inactive),> 100 µM (inactive),> 100 µM (inactive),> 100 µM (inactive),> 100 µM (inactive),> 100 µM (inactive),> 100 µM (inactive),> 100 µM (inactive),> 100 µM (inactive),> 100 µM (inactive),> 100 µM (inactive),> 100 µM (inactive),> 100 µM (inactive),> 100,> 100 µM (inactive),> 100 µM (inactive),> 100 µM (inactive)
Nc1ccc(S(=O)(=O)c2ccc(/N=[N+](\[O-])c3ccc(S(=O)(=O)c4ccc(N)cc4)cc3)cc2)cc1,35.8 µM (inactive),> 91.8 µM (inactive),27.2 µM (inactive),> 100 µM (inactive),> 100 µM (inactive),50 µM (inactive),> 100 µM (inactive),> 56.4 µM (inactive),41.2 µM (inactive),> 100 µM (inactive),> 100 µM (inactive),> 100 µM (inactive),20.4 µM (inactive),> 68.9 µM (inactive),7.66 µM (inactive),> 100,10.1 µM (inactive),17.9 µM (inactive),14.6 µM (inactive)
C=CCc1cccc2cc(C(=O)NC3CCCCC3)c(=N)oc12,16 µM (inactive),25.1 µM (inactive),33.7 µM (inactive),41 µM (inactive),> 100 µM (inactive),> 100 µM (inactive),33.4 µM (inactive),> 100 µM (inactive),32.6 µM (inactive),16.7 µM (inactive),17.5 µM (inactive),20.7 µM (inactive),18.9 µM (inactive),14.9 µM (inactive),31.4 µM (inactive),14.1,35 µM (inactive),> 100 µM (inactive),20.1 µM (inactive)
C[C@H]1CC(=O)[C@@]2(O)C#C/C=C\C#C[C@@H]3Nc4c(cc(O)c5c4C(=O)c4ccccc4C5=O)[C@]24O[C@]314,0.0873 µM (active),0.00231 µM (active),0.0194 µM (active),< 0.001 µM (active),< 0.001 µM (active),0.228 µM (active),0.0153 µM (active),0.01 µM (active),0.0158 µM (active),0.0568 µM (active),0.00106 µM (active),0.0509 µM (active),0.00159 µM (active),0.00296 µM (active),0.0114 µM (active),0.0248,0.0157 µM (active),0.0504 µM (active),0.00356 µM (active)
